Measurements from patent EP2698385A1, “Detection of synthetic cannabinoids” (priority 2012, dated 2014).
Where two headings read alike, the source gives them in different places.

Assays:
Type in all cases: binding, sheep
Antibody to Immunogen IV = tested on: Antibody to Immunogen IV
[1] = tested on: Antibody to Immunogen VII; details: Cross-reactants at 100 ng/ml; Antibody to Immunogen VII
[2] = tested on: Antibody to Immunogen VIII
Antibody to Immunogen I = tested on: Antibody to Immunogen I
How it was run: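 Sheep anti-Immunogen I IgG coated on plates, then JWH-018 standards (0–40 ng/ml) competed with hapten-HRP conjugate for 1 h at 25°C. TMB read-out at 450 nm, 4-parameter fit. IC50 is the standard concentration giving 50% B/B0; cross-reactivity of related cannabinoids taken from the calibration curves.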

[3] = Cross-reactants at 100 ng/ml, Antibody to Immunogen IV
[4] = Cross-reactants at 100 ng/ml, Antibody to Immunogen VIII
[5] = Cross-reactants at 100 ng/ml, Antibody to Immunogen I

## O=C(c1cccc2ccccc12)c1c[nH]c2ccccc12 [3-(1-naphthoyl)-1H-Indole, 3-(1-naphthoyl)-1H-indole]
Antibody to Immunogen IV; [3]
  %B/B0: 95.55%
[1]
  %B/B0: 80.08%
[2]; [4]
  %B/B0: 90.49%
Antibody to Immunogen I; [5]
  %B/B0: 15.63%

## CCCCCn1cc(C(=O)c2cccc3ccccc23)c2c(O)cccc21 [JWH-018 4-hydroxyindole metabolite]
Antibody to Immunogen IV; [3]
  %B/B0: 20.42%
[1]
  %B/B0: 89.96%
[2]; [4]
  %B/B0: 16.72%
Antibody to Immunogen I; [5]
  %B/B0: 46.39%

## CCCCCn1cc(C(=O)c2cccc3ccccc23)c2cc(O)ccc21 [JWH-018 5-hydroxyindole metabolite]
Antibody to Immunogen IV; [3]
  %B/B0: 78.56%
[1]
  %B/B0: 85.76%
[2]; [4]
  %B/B0: 87.67%
Antibody to Immunogen I; [5]
  %B/B0: 11.79%

## CCCCCn1cc(C(=O)c2cccc3ccccc23)c2ccc(O)cc21 [JWH-018 6-hydroxyindole metabolite]
Antibody to Immunogen IV; [3]
  %B/B0: 51.00%
[1]
  %B/B0: 68.17%
[2]; [4]
  %B/B0: 89.86%
Antibody to Immunogen I; [5]
  %B/B0: 8.07%

## O=C(c1cccc2ccccc12)c1cn(CCCCCO)c2ccccc12 [JWH-018 N-(5-hydroxypentyl) metabolite]
Antibody to Immunogen IV; [3]
  %B/B0: 78.42%
[1]
  %B/B0: 53.32%
[2]; [4]
  %B/B0: 57.37%
Antibody to Immunogen I; [5]
  %B/B0: 3.50%

## O=C(O)CCCCn1cc(C(=O)c2cccc3ccccc23)c2ccccc21 [JWH-018 N-pentanoic acid metabolite]
Antibody to Immunogen IV; [3]
  %B/B0: 99.89%
[1]
  %B/B0: 53.02%
[2]; [4]
  %B/B0: 100.31%
Antibody to Immunogen I; [5]
  %B/B0: 4.51%

## CCCCCn1cc(C(=O)c2cccc3ccccc23)c2ccccc21 [JWH-018]
Antibody to Immunogen IV; [3]
  %B/B0: 6.80%
Antibody to Immunogen IV; JWH-018 standard 1.25 ng/ml
  %B/B0: 87%
Antibody to Immunogen IV; JWH-018 standard 2.5 ng/ml
  %B/B0: 68%
Antibody to Immunogen IV; JWH-018 standard 5 ng/ml
  %B/B0: 42%
Antibody to Immunogen IV; JWH-018 standard 10 ng/ml
  %B/B0: 26%
Antibody to Immunogen IV; JWH-018 standard 20 ng/ml
  %B/B0: 16%
Antibody to Immunogen IV; JWH-018 standard 40 ng/ml
  %B/B0: 10%
Antibody to Immunogen IV; JWH-018 standard 80 ng/ml
  %B/B0: 7%
Antibody to Immunogen IV; Table 3b standard curve, standard concentration which produces 50% B/B0
  IC50: 4.133 ng/mL
[1]
  %B/B0: 67.66%
[2]; [4]
  %B/B0: 17.66%
[2]; JWH-018 standard 1 ng/ml
  %B/B0: 79%
[2]; JWH-018 standard 3 ng/ml
  %B/B0: 63%
[2]; JWH-018 standard 5 ng/ml
  %B/B0: 51%
[2]; JWH-018 standard 10 ng/ml
  %B/B0: 40%
[2]; JWH-018 standard 20 ng/ml
  %B/B0: 29%
[2]; JWH-018 standard 40 ng/ml
  %B/B0: 22%
[2]; JWH-018 standard 80 ng/ml
  %B/B0: 16%
[2]; Table 3c standard curve, standard concentration which produces 50% B/B0
  IC50: 5.230 ng/mL
Antibody to Immunogen I; [5]
  %B/B0: 5.19%
Antibody to Immunogen I; JWH-018 standard 0.625 ng/ml
  %B/B0: 77%
Antibody to Immunogen I; JWH-018 standard 1.25 ng/ml
  %B/B0: 62%
Antibody to Immunogen I; JWH-018 standard 2.5 ng/ml
  %B/B0: 44%
Antibody to Immunogen I; JWH-018 standard 5 ng/ml
  %B/B0: 31%
Antibody to Immunogen I; JWH-018 standard 10 ng/ml
  %B/B0: 20%
Antibody to Immunogen I; JWH-018 standard 20 ng/ml
  %B/B0: 14%
Antibody to Immunogen I; JWH-018 standard 40 ng/ml
  %B/B0: 9%
Antibody to Immunogen I; Table 3a standard curve, standard concentration which produces 50% B/B0
  IC50: 2.016 ng/mL

## CCCCn1cc(C(=O)c2cccc3ccccc23)c2ccccc21 [JWH-073]
Antibody to Immunogen IV; [3]
  %B/B0: 13.63%
[1]
  %B/B0: 58.34%
[2]; [4]
  %B/B0: 25.50%
Antibody to Immunogen I; [5]
  %B/B0: 3.56%

## CCCCCn1cc(C(=O)c2ccc(Cl)c3ccccc23)c2ccccc21 [JWH-398]
Antibody to Immunogen IV; [3]
  %B/B0: 6.00%
[1]
  %B/B0: 94.47%
[2]; [4]
  %B/B0: 18.66%
Antibody to Immunogen I; [5]
  %B/B0: 60.31%

## O=C(c1cccc2ccccc12)c1cn(CCN2CCOCC2)c2ccccc12 [WIN 55,225 (other name JWH-200), JWH-200]
Antibody to Immunogen IV; [3]
  %B/B0: 77.08%
[1]
  %B/B0: 42.85%
[2]; [4]
  %B/B0: 98.81%
Antibody to Immunogen I; [5]
  %B/B0: 3.51%
